Measured values published in patent US5604255A, “N-(1-thienylcycloalkyl)alkenylamines for treatment of neurotoxic injury” (priority 1994, dated 1997).

What was measured:
NMDA [1] = conditions: Berry et al, Eur. J. Pharm., 96, 261-267 (1983); spinal neurones; cited from earlier work
[2] = test system: [^3 H]PCP binding sites, rat cerebral cortical membranes; conditions: Goldman et al, FEBS Lett., 170, 333-336 (1985); cited from earlier work
hippocampal neurons [3] = test: Glutamate neurotoxicity assay (MTT neuronal survival); format: cell-based, Sprague-Dawley rats; conditions: for Protection from glutamate toxicity: 500 μM glutamate, 1 hour; for Optical Density (MTT, viable cells): units + SDM, 500 μM glutamate 1 hour, control 0.163, glutamate 0.092
Description: (§1) Compound No. 1 was tested for its ability to protect hippocampal neurons from hypoxia-induced cell death. Cultures of hippocampal neurons were prepared from embryonic day 17 Sprague-Dawley rats. The hippocampi were dissociated into a single cell suspension by incubation with 0.25% trypsin, 40 mg/ml DNase followed by gentle trituration through a Pasteur pipet. The cells were plated in a polylysine-coated 96-well plate and maintained in a chemically defined medium until use. The cells were grown for 2 to 3 weeks in 5% CO2 -in-air humidified environment at 36° C. to establish a thick network of neuronal processes with numerous spontaneously active synapses. Exposure to hypoxic/anoxic environment was accomplished by placing the cultures in an anaerobic chamber, and flushing it with a mixture of 95% N2 +5% CO2 gas to rapidly drop the O2 tension to near zero. The O2 tension was maintained at near zero using a disposable H2 +CO2 generator envelope with palladium catalyst. Compound No. 1 was added to the culture medium prior to incubation in the anaerobic chamber and maintained there for 6 hours. Following 2 hours of exposure to normal O2 tension, the cultures were processed for morphological and quantitive biochemical neuronal cell viability assays.
The neuronal survival assay utilized the compound MTT [(3-(4,5-dimethylthiazol-2-yl)-2,5-diphenyl tetrazolium bromide)], a pale yellow substrate that is cleaved by the mitochondrial enzyme succinate-dehydrogenase to yield a dark blue formazan product. This process requires active mitochondria, present only in live cells. Cultures of hippocampal neurons grown in 96-well plates were incubated with 1 mg/ml MTT at 36° C. in a 10% CO2 -in-air incubator for 30-60 min. At the end of the incubation, a dark blue precipitate outlined only viable cells. The precipitate was then solubilized using 0.08N HCl/isopropanol mixture and the absorbance measured with an ELISA plate reader (Dynatech MR600) using a test wavelength of 570 nm and a reference wavelength of 630 nm. The resulting optical density is directly proportional to the number of viable cells.
Compound No. 1 was tested for its ability to protect neurons from glutamate-induced neurotoxicity, which selectively kills mature neurons while sparing glial cells. Neuronal cells were prepared and cell viability assays were performed as described in the chronic hypoxia insult assay, above.
Hippocampal cultures were exposed to 500 μM glutamate for 1 hour either in the presence or absence of Compound No. 1 and immediately thereafter processed for qualitative (morphological) and quantitative viability assay.

NMA = test: NMDA/KA antagonist assay in embryo retina: blocking NMA neurotoxicity; set-up: species or system chick embryo; conditions: NMA 200 μM, 30 min, 37° C.
Description: (§2) A 15-day old chick embryo retina, incubated for 30 min. in a balanced salt solution (BSS) containing 1 mM Glu, developed a full lesion characteristic of an immature mouse retina following s.c. administration of Glu. Other excitotoxin agonists also produce acute lesions within 30 min., each agent being effective at a concentration proportional to its known excitatory and toxic potencies. The pattern of cellular degeneration is restricted in each case to the ganglion cell, inner plexiform and inner nuclear layers, but within these areas certain agonists induce different patterns of degeneration, the differences being most pronounced between NMA and KA. Four agonists were employed in the present test, each at a concentration established previously to be the lowest concentration required to consistently cause a fully-developed retinal lesion: KA (25 μM), Quis (50 μM), NMA (200 μM) and Glu (1000 μM). Compound No. 1 and other PCP-like compounds were tested at various concentrations for their ability to prevent KA, Quis, NMA or Glu neurotoxicity. […] Internal controls in each experiment consisted of at least six specimens being incubated with agonist alone. A typical toxic reaction had to be present in all controls and absent from all experimental specimens in order to qualify as a blocking effect. The method of tissue preparation was as follows: 15-day old chick embryos were decapitated and their eyes removed and cut into quadrants after excising the cornea and removing the lens, vitreous and iris. The retinal quadrants were then gently separated from the pigment epithelium and incubated for 30 min. at 37° C. in BSS to which an agonist or agonist plus antagonist was added. The BSS contained 140 mMNa^+, 5.0 mM K^+, 0.5 mM Ca^++, 4.5 mM Mg^++, 150 mM Cl^-, 5.6 mM glucose and bicarbonate/phosphate buffer (pH 7.3). […]

hippocampal neurons [4] = test: Acute azide toxicity assay (MTT neuronal survival); format: cell-based, Sprague-Dawley rats
PCP receptors = test: Radioreceptor assay, displacement of 3H-TCP from rat brain membranes; conditions: read-out: Ki apparent; units + SEM; 1 nM 3H-TCP, whole rat brain membranes, 1 hour incubation
Quis = test: NMDA/KA antagonist assay in embryo retina: blocking Quis neurotoxicity; set-up: species or system chick embryo; conditions: Quis 50 μM, 30 min, 37° C.; footnote: @ up to 500 μM
Description: as §2

rats = test: Behavioral assay, stereotyped behavior in rats; format: in vivo, Male Sprague-Dawley rats; conditions: for Stereotyped Behavior ED50: i.c.v., at time of maximal behavioral effect, parentheses: 95% confidence intervals
Description: Compound No. 1 was tested in comparison with PCP and TCP by an in vivo assay which determined stereotypic behavior in rats treated with the compounds. Male Sprague-Dawley rats weighing 200 to 250 g were used in the behavioral experiments. Each rat was used only once. Rats were anesthetized lightly with ether before a 20-gauge needle was used to make a hole in the rat's skull for i.c.v. injection of drugs at a later date. The rats were allowed to recover for at least 1 day before being used in the behavioral assays. On the day of the experiment, rats were placed individually into plastic rat cages and allowed at least 1 hr to acclimate before testing. Drugs were administered to rats in a random, single-blind fashion. Behavioral ratings were taken at 5-min intervals up to 1 hr after drug administration i.c.v. using the PCP rating scale as described by Sturgeon et al [Sturgeon, R. D., Fessler, R. G. and Meltzer, H. Y., "Behavioral Rating Scales for Accessing Phencyclidine-Induced Locomotor Activity, Stereotyped Behavior And Ataxia In Rats", European J. Pharmacol. 59 169, (1970)].
Dose-response curves for each treatment were determined at the time of maximal behavioral effect. Peak effects were found 5 min after i.c.v. administration of PCP (25-20000 nmol/rat). […] A rating of 5 in the PCP-rating scale was considered as complete stereotyped behavior, that is, a 100% response. At least 21 rats (at least seven rats/dose) were used to determine each dose-response curve and EDso values. ED50 values and dose-response curves were evaluated using a computerized Finney assay [Statistical Methods In Biological Assays, 2nd Edn., Hatner Pub. Co., New York (1964)].
The ability of the tested compounds to induce stereotyped behavior was assessed at 2.5, 5 and 10 minutes and thereafter every 5 min up to 1 hr after i.c.v., i.p., or s.c. administration.

KA = test: NMDA/KA antagonist assay in embryo retina: blocking KA neurotoxicity; set-up: species or system chick embryo; conditions: KA 25 μM, 30 min, 37° C.; tested from 1000 μM downward
Description: as §2

hippocampal neurons [5] = test: Chronic hypoxic insult assay (MTT neuronal survival); format: cell-based, Sprague-Dawley rats
Description: as §1, with “Exposure to hypoxic/anoxic environment was accomplished by placing the cultures in an anaerobic chamber, and flushing it with a mixture of 95% N2 +5% CO2 gas to rapidly drop the O2 tension to near zero. The O2 tension was maintained at near zero using a disposable H2 +CO2 generator envelope with palladium catalyst. Compound No. 1 was added to the culture medium prior to incubation in the anaerobic chamber and maintained there for 6 hours.” left out
The neuronal survival assay utilized the compound MTT [(3-(4,5-dimethylthiazol-2-yl)-2,5-diphenyl tetrazolium bromide)], a pale yellow substrate that is cleaved by the mitochondrial enzyme succinate-dehydrogenase to yield a dark blue formazan product. […] The precipitate was then solubilized using 0.08N HCl/isopropanol mixture and the absorbance measured with an ELISA plate reader (Dynatech MR600) using a test wavelength of 570 nm and a reference wavelength of 630 nm. […]

NMDA [6] = conditions: Anis et al, Br. J. Pharmacol., 79, 565 (1983); cited from earlier work

Row | Compound | Minimal concentration required to provide total protection vs NMA (NMA) [µM] | Ki (PCP receptors) [nM] | Protection vs Quis (Quis) | Stereotyped Behavior ED50 (rats) | Protection vs KA (KA) | further results
1 | CC1CCCN(C2(c3ccccc3)CCCCC2)C1 (single isomer, unassigned; (+)) [(+)-PCMP, (+)-1-(1-phenylcyclohexyl)-3-methylpiperidine] |  |  |  |  |  | Stereoselective effects over isomer counterpart in reducing the excitatory action of NMDA (NMDA [1]): confirmed; Inhibition of specific binding of [^3 H]PCP [2]: potent inhibitor
2 | C1=CCN(C2(c3cccs3)CCCCC2)CC1 [Compound No. 1, 1-[1-(2-thienyl)-cyclohexyl]-1,2,5,6-tetrahydropyridine] | 0.25 | 12 ± 2 | Zero @ 250 μM | 43 (34-57) nmol/rat | Partial @ 5 μM | Protection from glutamate toxicity (hippocampal neurons [3]; 5 μM compound): significant protection; Protection from glutamate toxicity (hippocampal neurons [3]; 50 μM compound): Nearly complete protection; Optical Density (MTT, viable cells) (hippocampal neurons [3]; 5 μM compound): 0.147 ± .017; Optical Density (MTT, viable cells) (hippocampal neurons [3]; 50 μM compound): 0.157 ± .017; Protection of neurons from sodium azide poisoning (hippocampal neurons [4]; 1 μM compound, 10 μM sodium azide, 1 hour): significant protection; Optical Density (MTT, viable cells) (hippocampal neurons [4]; units + SDM, sodium azide 1 hour + 1 μM compound, control 0.146, sodium azide 0.084): 0.138 ± .013; EC (maximum protection) (hippocampal neurons [5]; Rattus norvegicus, Hippocampal neuron, hypoxia 6 hours, read-out: Concentration giving maximum protection of neurons from hypoxic insult): 50 µM; Optical Density (MTT, viable cells) (hippocampal neurons [5]; units + SDM, hypoxia + 50 μM compound, 6 hours, untreated control 0.163, hypoxia 0.062): 0.173 ± .033
3 | S=C=Nc1cccc(C2(N3CCCCC3)CCCCC2)c1 [Metaphit, 1-[1-(3-isothiocyanatophenyl)cyclohexyl]piperidine] | 50 |  | No Activity |  | No Activity | 
4 | c1ccc(C2(N3CCCCC3)CCCCC2)cc1 [PCP, Phencyclidine] | 1 | 96 ± 15 | No Activity | 150 (120-180) nmol/rat | No Activity | Time of peak behavioral effect (rats; after i.c.v. administration, 25-20000 nmol/rat): 5 min; Time of peak behavioral effect (rats; after i.p. administration, 2.0-32 mg/kg): 15 min; Reduction of the excitatory effects of NMDA as compared to KA and QUIS (NMDA [6]): reduce selectively the excitatory effects of NMDA
5 | c1csc(C2(N3CCCCC3)CCCCC2)c1 [TCP] |  | 20 ± 6 |  | 56 (49-76) nmol/rat |  | 
6 | CC1CCC(c2ccccc2)(N2CCCCC2)CC1 (stereo not drawn) [cis-N-(1-phenyl-4-methylcyclohexyl)piperidine] |  |  |  |  |  | Stereoselective effects over isomer counterpart in reducing the excitatory action of NMDA (NMDA [1]): confirmed
7 | CNC1(c2ccccc2Cl)CCCCC1=O (stereo not drawn) [ketamine] |  |  |  |  |  | Reduction of the excitatory effects of NMDA as compared to KA and QUIS (NMDA [6]): reduce selectively the excitatory effects of NMDA
